What was measured:
[1] = tested on: IL-6, IFN-γ; F4/80, CD86, CD206 cells; experiment: Tissue inflammatory cytokines (real-time PCR) and bone marrow macrophage IHC in aged mice; assay type: in vivo, mouse
Description: (§1) RNAs were purified by using the TRIzol® (#15596018, Invitrogen) and chloroform method (#C7559, Sigma-Aldrich) and reversed transcribed using High-Capacity cDNA Reverse Transcription Kit (#4368814, Applied Biosystems, Foster City, CA, USA). The quantitative RT-PCR was conducted with universal probe system (Roche Life Science, Indianapolis, IN, USA) by using a QuantStudio™ 7 Flex Real-Time PCR System (Applied Biosystems) and was normalized by the expression of GAPDH.

[2] = tested on: H2O2-induced senescent human MSCs; experiment: H2O2-induced senescence in human MSCs; assay type: cell-based; details: GB 5 mg/L
Excerpt: C2C12 myoblast cell line (#CRL-1772TM, ATCC, Manassas, VA, USA) was expanded in high-glucose DMEM (#D7777, Sigma-Aldrich) with 10% FBS (#10270106, Gibco, Waltham, MA, USA) and 1% PSG (#10378016, Gibco). Passage 15-20 C2C12 was considered as multiple population doublings C2C12. Subconfluent C2C12 was differentiated to myotubes by myogenic induction medium, high-glucose DMEM (Sigma-Aldrich) containing 2% horse scrum (#16050122, Gibco) for 5 days. Aged bone-marrow monocytes were isolated from 20-month-old female C57BL/6 mice and then differentiated into macrophages in RPMI 1640 (#11875085, Gibco) supplemented with 10% FBS and 20 ng/ml M-CSF (#315-02, PeproTech, Cranbury, NJ, USA). Inflammatory MI macrophages were induced by 45 ng/mL IFN-γ (#485-MI-100, R&D Systems, Minneapolis, MN, USA) +100 ng/mL LPS (#L4391, Sigma-Aldrich). The indicative cells were then treated with or without GB (5 mg/L) for 48 hr. Commercial human mesenchymal stem cells (MSCs)40 were cultured in MSC maintenance medium consisting of IMDM, 10% FBS (#10270106, Gibco), 10 ng/ml bFGF (#233-FB, R&D Systems) and 1% PSG (#10378016, Gibco). To induce senescence, we treated cells at approximately 50% confluence with 200 μM H2O2 for 2 hr and then washed cells by PBS two times to remove H202. The cells were treated with GB (5 mg/L) or vehicle in fresh growth medium and subjected to the subsequent experiments at indicative time point.
Cell viability was measured by a CCK-8 kit (#ab228554, Abcam), and cell proliferation was determined by manually cell counting with hemocytometer. Senescence-associated β-galactosidase activity was determined by senescence-associated β-galactosidase staining kit (#9860, Cell Signaling Technology, Danvers, Massachusetts, USA) according to the manufacturer's instructions. Senescence-associated heterochromatin foci were visualized by DAPI staining.
as §1

[3] = tested on: skeletal muscle of aged C57BL/6 mice; experiment: Muscle histology (fiber type, oil red O, Masson's trichrome, central nuclei) and vascular network in aged mice; assay type: in vivo, mouse; details: GB 2 months
Description: Body composition was measured by Minispec LF50 TD-NMR (Bruker, MA, USA) based on nuclear magnetic resonance methods. Briefly, mice were anesthetized for the duration of the procedure by 3% isoflurane (Zoctis, London, UK) and placed in the scanning chamber in the prone position, with the limbs and tail stretched away from the body. The analysis would be conducted by default software per manufacturer's protocol. The vascular networks […] were quantified by in vivo micro-computed tomography (U-CT, Milabs, Netherlands). Briefly, mice intravenously received 150 μL ExiTron™ nano 12000 (#130-095-698, Miltonic Biotec GmbH, Bergisch Gladbach, Germany), and then mice were anesthetized with isoflurane before being positioned on the scanning chamber. After scanning, the blood vessels were analyzed by a curved multiplanar reconstruction algorithm by using Osirix software (Bernex, Switzerland).

healthy adult humans = details: short-term pharmacological studies; cited from earlier work
p16, p19, p57, γ-H2AX = experiment: Senescence markers in multiple tissues of aged mice (real-time PCR, IHC); assay type: in vivo, mouse
Description: as §1

[4] = tested on: 20-month-old female C57BL/6 mice; experiment: Lifespan and cancer incidence analysis, lifelong GB from 20 months of age; assay type: in vivo, mouse
Excerpt: The mice were not involved in any experiments to maximally reduce potential interference and stress to animals.

[5] = tested on: kidney, heart, spleen and liver in aged mice; experiment: Organ pathology, blood chemistry and tolerability after 2 months of GB in mice
Description: All animals were purchased from Laboratory Animal Services Centre, the Chinese University of Hong Kong, ad libitum fed the standard diet (#5V0f, LabDiet, St. Louis, MO, USA), and housed at specific-pathogen-free and humidity-controlled conditions under a 12 light: 12 dark photoperiod with temperature at 20-22° C. Animals were kept up to five per cage and were randomly assigned to control and experimental groups in all experiments. […] For the short-term experiment, 3-(young), 6-(adult) and 20-month-old (aged) female C57BL/6 mice were administered 12 mg/kg body weight GB (#G6910, Sigma-Aldrich, St. Louis, MO, USA) or vehicle daily by oral gavage for two months. […] GB was diluted to the appropriate concentration in 100 μL of sterile PBS (#10378016, Gibco, Waltham, MA, USA).
Tissue samples were harvested and embedded in paraffin or in OCT (#4583, Sakura Finetek USA, Torrance, CA, USA). For paraffin-embedded samples, 10 μm sections were deparaffinized by xylene and alcohol gradient treatment and were then hydrated by distilled water and processed for heat-induced antigen retrieval with antigen retrieval solution at 70° C. for 1.5 hours before staining. For OCT-embedded samples, 10 μm sections were hydrated by distilled water before staining. Hematoxylin and cosin staining (#MHS16 and #HT110116 Sigma-Aldrich), oil red O staining (#00625, Sigma-Aldrich), and Masson's trichrome staining (#HT15, Sigma-Aldrich) were used to assess the histology, lipid droplet, and collagen deposition. For immunohistochemical staining, antigen-retrieval samples were blocked with 5% bovine serum albumin (BSA) (#A9647, Sigma-Aldrich) for 1 hour at room temperature and incubated with primary antibodies overnight at 4° C., followed by a ready-to-use IHC/ICC Kit (#K405, BioVision, Milpitas, CA, USA) at room temperature. The samples were then suspended with double-distilled water and then stained with hematoxylin. For immunocytochemical staining, samples were blocked with 5% BSA (Sigma-Aldrich) for 1 hour at room temperature and incubated with primary antibodies overnight at 4° C., then washed with PBS for ten minutes, and then incubated with secondary antibody for 1 hour at room temperature, then washed with PBS three times for ten minutes.

[6] = tested on: circulating inflammatory cytokines and chemokines; experiment: Serum 40-plex cytokine/chemokine panel in aged mice; assay type: in vivo, mouse; details: of 40 detected, GB 2 months
Excerpt: Serum was collected by cardiac puncture upon sacrifice.

CC1C(=O)OC2C(O)C34C5CC(C(C)(C)C)C36C(OC(=O)C6O)OC4(C(=O)O5)C12O (stereo not shown) [GB, Ginkgolide B]
inflammatory cytokines IL-6 and IFN-γ in multiple tissues ([1]; GB 2 months, real-time PCR): downregulated | CD86+ pro-inflammatory M1 macrophages ([1]; femur bone marrow IHC): decrease | CD206+ anti-inflammatory M2 macrophages ([1]; femur bone marrow IHC): increased | aging-related accumulation of bone marrow F4/80+ cells ([1]; femur bone marrow IHC): reversed | cellular morphology [2]: restored the spindle sharp from flattened and enlarged morphology | expression of senescence markers [2]: reduced | proliferation [2]: promoted | senescence-associated heterochromatin foci and nucleus size [2]: reduced | senescence-associated β-galactosidase (SA-β-Gal) staining ([2]; p=0.0007): reduced | cellular viability (CCK8) ([2]; p=0.0026): promoted | capillary density ([3]; CD31 staining of quadriceps, p=0.0492): dramatically enlarges | aging-related changes in fiber-type switching ([3]; GA muscle, in particular type 1 and 2B myofibers): partially reversed | number of central myonuclei in aged myofibers ([3]; p=0.0011): reduced | collagen deposition in muscle ([3]; Masson's trichrome, GA muscle, p=0.0004): reduced | deep femoral artery ([3]; micro-CT, p=0.012): dramatically enlarges | intramuscular lipid infiltration ([3]; oil red O, GA muscle, p=0.01): reduced | tolerability of multiple administration (healthy adult humans): well tolerated | expression of histone γ-H2AX (p16, p19, p57, γ-H2AX; IHC, multiple tissues of aged mice): reduced | expression of p16, p19 and p57 (p16, p19, p57, γ-H2AX; liver, kidney, lung, spleen, heart and muscle of aged mice, except p16 in spleen and p57 in lung): significantly inhibited | age at 50% cumulative cancer incidence ([4]; GB group, vehicle 891 days, p=0.0002 log-rank): 1025 days | aging-associated mortality ([4]; GB vs vehicle aged mice): delayed | hazard ratio by Mantel-Haenszel ([4]; GB vs vehicle aged mice): 0.4577 | hazard ratio by log-rank test ([4]; GB vs vehicle aged mice): 0.3526 | macroscopic tumors detected by necropsy ([4]; GB-aged mice compared with vehicle group): less macroscopic tumors | median lifespan extension ([4]; from the inception of GB administration at 20 months, 12 mg/kg daily, p=0.0002 log-rank, 0.0064 Gehan-Breslow-Wilcoxon): 30% | lifespan extension (summary statement) ([4]; lifelong oral GB in mice starting from 20 months old): 20% | median lifespan extensions by tumor incidence ([4]; p=0.0011 and 0.03 by log-rank test): observed in both tumor and non-tumor cohorts | extension of mean maximal lifespans of the 10% and 20% longest-lived mice ([4]; p=0.0286 and 0.0006): around 55 days | collagen deposition in multiple organs ([5]; Masson's trichrome, aged mice): reduced | severe acute toxicity ([5]; adult, aged or OVX mice, none of the treated mice dying during the two months of GB administration): did not find severe acute toxicity | compensatory hypertrophy of the kidney and heart ([5]; aged mice, GB 2 months): decreased | aging-related compensatory hypertrophy of glomerulus ([5]; aged mice, histopathology, p<0.0001): reduced | aging-related compensatory hypertrophy of cardiomyocytes ([5]; aged mice, histopathology, p=0.0018): reduced | reduction of aging-related hepatic lipid accumulation ([5]; aged mice, p<0.0001): 3.8 fold | decrease in white pulp and white pulp/red pulp ratio in aged spleen ([5]; aged mice, p<0.0001 and p=0.0143): ameliorated | number of hepatic microgranulomas ([5]; aged mice, p=0.0031): decreased | number of circulating proteins significantly altered [6]: 12
